ChEMBL document CHEMBL1201862, “PubChem BioAssay data set” (2004)
The source made the active and inactive calls.

What was measured:
Assay type in all cases: functional
[1] = target: T1, Mitochondrial peptide methionine sulfoxide reductase (Bos taurus, UniProt P54149); experiment: Absorbance-based biochemical high throughput dose response assay for activators of Methionine sulfoxide reductase A (MsrA).
T1 sequence (P54149 whole entry): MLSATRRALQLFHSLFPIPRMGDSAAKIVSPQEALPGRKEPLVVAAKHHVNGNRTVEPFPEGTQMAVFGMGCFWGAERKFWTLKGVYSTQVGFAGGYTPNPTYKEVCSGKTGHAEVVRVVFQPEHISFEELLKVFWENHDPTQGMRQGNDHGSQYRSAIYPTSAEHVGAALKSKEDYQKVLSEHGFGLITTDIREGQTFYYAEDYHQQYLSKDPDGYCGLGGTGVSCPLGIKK

[2] = target: Cyclin-dependent kinase 9 (Homo sapiens, UniProt P50750);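 note: value from the CDK9 entry of a kinome-spanning kinase panel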
[3] = target: Platelet-derived growth factor receptor alpha (Homo sapiens, UniProt P16234); experiment: Navigating the Kinome. Panel member name: PDGFRA
[4] = target: Tyrosine-protein kinase receptor TYRO3 (Homo sapiens, UniProt Q06418);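 note: TYRO3 value obtained as one member of a kinome-wide profiling panel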
[5] = target: Mitogen-activated protein kinase 9 (Homo sapiens, UniProt P45984);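 note: value from a kinome panel profiling assay, MAPK9 panel entry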
[6] = target: Macrophage-stimulating protein receptor (Homo sapiens, UniProt Q04912); experiment: Navigating the Kinome. Panel member name: MST1R
[7] = target: Dual specificity tyrosine-phosphorylation-regulated kinase 1B (Homo sapiens, UniProt Q9Y463); experiment: Navigating the Kinome. Panel member name: DYRK1B
[8] = target: T2, Activin receptor type-1 (Homo sapiens, UniProt Q04771); experiment: Navigating the Kinome. Panel member name: ACVR1
T2 sequence (Q04771 whole entry): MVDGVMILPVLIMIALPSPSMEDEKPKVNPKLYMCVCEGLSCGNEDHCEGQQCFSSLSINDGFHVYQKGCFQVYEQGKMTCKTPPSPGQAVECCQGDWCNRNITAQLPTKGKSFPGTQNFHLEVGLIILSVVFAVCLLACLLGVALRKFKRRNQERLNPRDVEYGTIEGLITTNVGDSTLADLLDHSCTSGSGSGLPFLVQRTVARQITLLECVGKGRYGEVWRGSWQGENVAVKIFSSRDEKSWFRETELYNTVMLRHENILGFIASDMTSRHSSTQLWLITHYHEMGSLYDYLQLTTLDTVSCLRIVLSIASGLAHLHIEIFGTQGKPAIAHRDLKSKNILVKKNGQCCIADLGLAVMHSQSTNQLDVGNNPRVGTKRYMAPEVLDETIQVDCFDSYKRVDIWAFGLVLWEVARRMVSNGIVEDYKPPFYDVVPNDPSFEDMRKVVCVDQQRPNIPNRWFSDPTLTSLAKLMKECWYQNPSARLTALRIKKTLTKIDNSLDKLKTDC

[9] = target: Protein kinase C theta type (Homo sapiens, UniProt Q04759); experiment: Navigating the Kinome. Panel member name: PRKCQ
[10] = target: Tyrosine-protein kinase ABL1 (Homo sapiens, UniProt P00519)
[11] = target: Aurora kinase B (Homo sapiens, UniProt Q96GD4)
[12] = target: Dual specificity mitogen-activated protein kinase kinase 1 (Homo sapiens, UniProt Q02750); experiment: Navigating the Kinome. Panel member name: MAP2K1
[13] = target: Casein kinase I isoform alpha (Homo sapiens, UniProt P48729)
[14] = target: Insulin-like growth factor 1 receptor (Homo sapiens, UniProt P08069); experiment: Navigating the Kinome. Panel member name: IGF1R
[15] = target: T3, Mitogen-activated protein kinase kinase kinase kinase 2 (Homo sapiens, UniProt Q12851);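 note: measured as one member of a kinome-wide kinase panel, with MAP4K2 as the panel entry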
T3 sequence (Q12851 whole entry): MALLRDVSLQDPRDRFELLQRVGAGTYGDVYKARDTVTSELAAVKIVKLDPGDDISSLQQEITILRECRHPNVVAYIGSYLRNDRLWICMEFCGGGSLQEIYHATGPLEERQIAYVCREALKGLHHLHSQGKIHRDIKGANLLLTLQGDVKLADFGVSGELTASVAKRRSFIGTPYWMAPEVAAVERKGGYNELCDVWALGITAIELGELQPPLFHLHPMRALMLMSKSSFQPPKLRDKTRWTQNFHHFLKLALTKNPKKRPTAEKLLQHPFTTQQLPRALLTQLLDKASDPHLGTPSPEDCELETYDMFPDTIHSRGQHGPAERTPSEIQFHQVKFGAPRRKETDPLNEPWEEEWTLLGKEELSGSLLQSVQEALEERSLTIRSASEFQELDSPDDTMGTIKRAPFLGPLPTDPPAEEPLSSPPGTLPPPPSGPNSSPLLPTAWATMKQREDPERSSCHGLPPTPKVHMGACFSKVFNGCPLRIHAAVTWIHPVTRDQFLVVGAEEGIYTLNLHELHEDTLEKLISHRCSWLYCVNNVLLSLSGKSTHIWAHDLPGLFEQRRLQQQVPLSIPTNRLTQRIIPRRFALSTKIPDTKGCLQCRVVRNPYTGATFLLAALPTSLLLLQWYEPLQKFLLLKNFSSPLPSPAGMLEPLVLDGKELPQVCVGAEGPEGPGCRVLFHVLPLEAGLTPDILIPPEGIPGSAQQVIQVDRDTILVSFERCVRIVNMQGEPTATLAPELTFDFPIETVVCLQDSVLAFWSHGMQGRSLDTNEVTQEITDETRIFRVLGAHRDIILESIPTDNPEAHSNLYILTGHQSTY

[16] = target: Mitogen-activated protein kinase 14 (Homo sapiens, UniProt Q16539);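 note: part of a kinome-wide panel, MAPK14 entry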
[17] = target: Calcium/calmodulin-dependent protein kinase type II subunit alpha (Homo sapiens, UniProt Q9UQM7); experiment: Navigating the Kinome. Panel member name: CAMK2A
[18] = target: cAMP-dependent protein kinase catalytic subunit alpha (Homo sapiens, UniProt P17612)
[19] = target: Leukocyte tyrosine kinase receptor (Homo sapiens, UniProt P29376); experiment: Navigating the Kinome. Panel member name: LTK
[20] = target: Cyclin-dependent kinase 7 (Homo sapiens, UniProt P50613);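 note: value comes from a kinome-wide kinase profiling panel in which CDK7 is one member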
Sequence of Cyclin-dependent kinase 7 (P50613 whole entry): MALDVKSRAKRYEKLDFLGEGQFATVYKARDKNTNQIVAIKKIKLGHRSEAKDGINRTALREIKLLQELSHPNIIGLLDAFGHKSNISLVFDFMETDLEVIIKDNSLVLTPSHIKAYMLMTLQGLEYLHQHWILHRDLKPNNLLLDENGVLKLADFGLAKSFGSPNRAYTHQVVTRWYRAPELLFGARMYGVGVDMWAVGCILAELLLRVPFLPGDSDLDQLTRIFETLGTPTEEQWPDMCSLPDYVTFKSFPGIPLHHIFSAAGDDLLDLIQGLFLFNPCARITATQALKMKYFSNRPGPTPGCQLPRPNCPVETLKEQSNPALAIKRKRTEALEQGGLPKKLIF

Sequence of Platelet-derived growth factor receptor alpha (P16234 whole entry): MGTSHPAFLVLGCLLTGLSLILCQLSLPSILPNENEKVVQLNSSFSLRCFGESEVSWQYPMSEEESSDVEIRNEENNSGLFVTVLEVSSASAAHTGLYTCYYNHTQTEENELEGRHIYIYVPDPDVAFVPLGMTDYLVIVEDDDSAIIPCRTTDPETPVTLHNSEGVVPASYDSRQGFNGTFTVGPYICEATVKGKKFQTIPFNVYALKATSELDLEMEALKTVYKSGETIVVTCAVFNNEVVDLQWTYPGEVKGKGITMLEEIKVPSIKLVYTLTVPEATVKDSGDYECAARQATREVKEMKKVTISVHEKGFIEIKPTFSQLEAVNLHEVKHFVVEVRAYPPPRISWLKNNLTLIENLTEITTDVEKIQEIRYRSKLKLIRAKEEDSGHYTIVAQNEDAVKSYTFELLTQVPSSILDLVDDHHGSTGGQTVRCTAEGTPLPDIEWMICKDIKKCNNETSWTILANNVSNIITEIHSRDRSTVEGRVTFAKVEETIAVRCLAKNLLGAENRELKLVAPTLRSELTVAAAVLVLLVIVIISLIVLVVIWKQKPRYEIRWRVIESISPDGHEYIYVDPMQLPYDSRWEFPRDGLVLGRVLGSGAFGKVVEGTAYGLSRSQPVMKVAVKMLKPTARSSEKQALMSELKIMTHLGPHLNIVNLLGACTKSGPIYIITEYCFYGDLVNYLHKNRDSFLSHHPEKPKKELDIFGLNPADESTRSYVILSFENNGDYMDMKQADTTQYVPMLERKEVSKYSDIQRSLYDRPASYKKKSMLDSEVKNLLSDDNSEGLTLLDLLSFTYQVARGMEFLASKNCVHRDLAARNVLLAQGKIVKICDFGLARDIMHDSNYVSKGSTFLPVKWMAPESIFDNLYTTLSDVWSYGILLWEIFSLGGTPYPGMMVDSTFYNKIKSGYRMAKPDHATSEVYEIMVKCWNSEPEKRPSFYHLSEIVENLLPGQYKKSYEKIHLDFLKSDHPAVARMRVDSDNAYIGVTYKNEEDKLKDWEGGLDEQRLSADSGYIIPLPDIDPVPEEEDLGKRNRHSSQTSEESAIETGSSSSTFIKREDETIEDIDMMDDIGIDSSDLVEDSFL
Sequence of Tyrosine-protein kinase ABL1 (P00519 whole entry): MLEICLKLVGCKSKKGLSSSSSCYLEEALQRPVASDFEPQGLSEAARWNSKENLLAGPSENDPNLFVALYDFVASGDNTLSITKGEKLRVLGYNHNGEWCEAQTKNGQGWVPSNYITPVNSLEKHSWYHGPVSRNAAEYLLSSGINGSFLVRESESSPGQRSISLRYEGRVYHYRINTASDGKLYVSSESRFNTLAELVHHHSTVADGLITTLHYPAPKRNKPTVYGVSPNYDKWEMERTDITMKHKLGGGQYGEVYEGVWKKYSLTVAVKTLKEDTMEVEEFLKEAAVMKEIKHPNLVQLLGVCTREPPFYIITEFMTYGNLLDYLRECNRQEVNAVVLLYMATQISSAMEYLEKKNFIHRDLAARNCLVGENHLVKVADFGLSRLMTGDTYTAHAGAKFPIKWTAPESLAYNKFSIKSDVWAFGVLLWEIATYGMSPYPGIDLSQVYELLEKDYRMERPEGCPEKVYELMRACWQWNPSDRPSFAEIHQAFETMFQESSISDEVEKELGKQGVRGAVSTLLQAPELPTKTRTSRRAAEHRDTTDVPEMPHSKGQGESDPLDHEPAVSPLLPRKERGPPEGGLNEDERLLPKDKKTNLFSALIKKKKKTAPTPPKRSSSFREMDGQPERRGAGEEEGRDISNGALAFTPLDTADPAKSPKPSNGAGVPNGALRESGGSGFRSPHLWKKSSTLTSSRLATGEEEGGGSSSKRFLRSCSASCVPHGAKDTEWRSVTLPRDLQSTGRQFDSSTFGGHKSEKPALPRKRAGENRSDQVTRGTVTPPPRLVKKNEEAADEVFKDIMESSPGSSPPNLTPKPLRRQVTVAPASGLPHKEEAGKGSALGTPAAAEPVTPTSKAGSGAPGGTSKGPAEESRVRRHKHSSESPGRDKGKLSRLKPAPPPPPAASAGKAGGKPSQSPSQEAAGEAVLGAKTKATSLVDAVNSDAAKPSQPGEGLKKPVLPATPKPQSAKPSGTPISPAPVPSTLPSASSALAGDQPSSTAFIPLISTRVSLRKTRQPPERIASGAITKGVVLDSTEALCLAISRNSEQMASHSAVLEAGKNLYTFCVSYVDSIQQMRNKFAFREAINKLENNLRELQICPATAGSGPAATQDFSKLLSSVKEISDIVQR
Sequence of Leukocyte tyrosine kinase receptor (P29376 whole entry): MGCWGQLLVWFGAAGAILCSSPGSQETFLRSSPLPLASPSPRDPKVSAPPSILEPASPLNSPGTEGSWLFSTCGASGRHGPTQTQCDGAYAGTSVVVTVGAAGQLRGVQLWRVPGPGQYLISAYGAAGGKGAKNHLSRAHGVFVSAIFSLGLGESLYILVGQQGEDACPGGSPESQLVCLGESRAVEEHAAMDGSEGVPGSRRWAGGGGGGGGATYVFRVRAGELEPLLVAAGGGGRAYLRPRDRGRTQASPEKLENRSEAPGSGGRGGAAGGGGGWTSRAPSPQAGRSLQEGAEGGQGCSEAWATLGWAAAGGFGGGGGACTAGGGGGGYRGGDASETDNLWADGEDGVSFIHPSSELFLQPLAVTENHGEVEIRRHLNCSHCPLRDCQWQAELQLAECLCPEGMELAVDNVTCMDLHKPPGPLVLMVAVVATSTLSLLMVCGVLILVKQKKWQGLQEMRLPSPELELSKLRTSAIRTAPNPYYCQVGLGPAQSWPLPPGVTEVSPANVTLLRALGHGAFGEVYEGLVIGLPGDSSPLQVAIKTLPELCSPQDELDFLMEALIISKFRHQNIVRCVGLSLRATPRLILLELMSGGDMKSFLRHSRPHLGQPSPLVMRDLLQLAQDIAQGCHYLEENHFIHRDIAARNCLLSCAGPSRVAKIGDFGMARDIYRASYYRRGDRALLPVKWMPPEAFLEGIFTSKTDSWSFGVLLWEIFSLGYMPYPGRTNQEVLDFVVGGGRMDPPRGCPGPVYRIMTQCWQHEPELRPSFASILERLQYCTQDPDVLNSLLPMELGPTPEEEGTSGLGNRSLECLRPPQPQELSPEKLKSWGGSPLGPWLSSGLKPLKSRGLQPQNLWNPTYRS
Sequence of Mitogen-activated protein kinase 9 (P45984 whole entry): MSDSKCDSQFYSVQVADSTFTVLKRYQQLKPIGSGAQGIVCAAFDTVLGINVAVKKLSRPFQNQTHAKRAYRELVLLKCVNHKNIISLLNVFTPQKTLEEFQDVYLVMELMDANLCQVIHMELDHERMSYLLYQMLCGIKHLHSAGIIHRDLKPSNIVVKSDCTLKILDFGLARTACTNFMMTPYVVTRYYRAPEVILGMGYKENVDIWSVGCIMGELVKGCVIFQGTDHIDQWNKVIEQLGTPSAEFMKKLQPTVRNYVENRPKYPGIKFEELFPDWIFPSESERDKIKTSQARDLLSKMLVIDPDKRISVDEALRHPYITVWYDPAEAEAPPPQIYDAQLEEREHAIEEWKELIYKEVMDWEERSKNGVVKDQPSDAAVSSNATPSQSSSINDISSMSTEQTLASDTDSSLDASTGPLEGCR
Sequence of Aurora kinase B (Q96GD4 whole entry): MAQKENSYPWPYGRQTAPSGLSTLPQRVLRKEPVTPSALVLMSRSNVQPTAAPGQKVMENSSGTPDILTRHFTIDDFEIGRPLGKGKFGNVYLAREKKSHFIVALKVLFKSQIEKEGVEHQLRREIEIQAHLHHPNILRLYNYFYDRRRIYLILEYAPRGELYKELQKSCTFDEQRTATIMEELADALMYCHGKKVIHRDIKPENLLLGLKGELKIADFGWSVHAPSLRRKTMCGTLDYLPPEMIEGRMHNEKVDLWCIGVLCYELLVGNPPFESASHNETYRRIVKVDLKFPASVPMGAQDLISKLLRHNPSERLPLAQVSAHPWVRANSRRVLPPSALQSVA
Sequence of Calcium/calmodulin-dependent protein kinase type II subunit alpha (Q9UQM7 whole entry): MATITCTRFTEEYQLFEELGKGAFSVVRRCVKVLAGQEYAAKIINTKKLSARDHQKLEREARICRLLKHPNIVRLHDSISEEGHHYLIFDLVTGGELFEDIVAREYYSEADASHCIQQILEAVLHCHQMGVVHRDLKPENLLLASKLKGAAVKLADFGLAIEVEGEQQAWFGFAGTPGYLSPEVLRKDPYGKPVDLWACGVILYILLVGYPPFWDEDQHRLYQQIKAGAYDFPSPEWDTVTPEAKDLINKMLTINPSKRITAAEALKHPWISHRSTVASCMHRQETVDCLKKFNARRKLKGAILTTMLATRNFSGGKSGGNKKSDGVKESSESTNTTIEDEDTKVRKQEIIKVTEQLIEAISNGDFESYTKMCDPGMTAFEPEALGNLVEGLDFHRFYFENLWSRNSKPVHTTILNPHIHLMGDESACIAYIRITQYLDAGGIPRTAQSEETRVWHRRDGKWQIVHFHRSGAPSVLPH
Sequence of Casein kinase I isoform alpha (P48729 whole entry, canonical isoform): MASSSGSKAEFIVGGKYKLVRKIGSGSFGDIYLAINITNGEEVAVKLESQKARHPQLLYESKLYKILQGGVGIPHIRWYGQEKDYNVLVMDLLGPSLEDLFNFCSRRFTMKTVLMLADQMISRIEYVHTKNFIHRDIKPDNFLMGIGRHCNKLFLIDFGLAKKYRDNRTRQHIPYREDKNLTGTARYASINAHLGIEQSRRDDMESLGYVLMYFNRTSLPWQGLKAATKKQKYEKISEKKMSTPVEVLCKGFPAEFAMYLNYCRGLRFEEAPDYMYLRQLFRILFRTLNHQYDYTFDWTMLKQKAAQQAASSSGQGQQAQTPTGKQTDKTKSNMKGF

Row | Ki [2] | Ki [3] | Ki [4] | Ki [5] | Ki [6] | Ki [7] | Ki [8] | Ki [9] | Ki [10] | Ki [11] | Ki [12] | Ki [13] | Ki [14] | Ki [15] | Ki [16] | Ki [17] | Ki [18] | Ki [19] | Ki [20] | SMILES | EC50 [1] | other results
1 |  |  |  |  |  |  |  |  |  |  |  |  |  |  |  |  |  |  |  | CCN(CC)CCCC(C)n1c2nc(=O)[nH]c(=O)c-2nc2cc(Cl)ccc21 (stereo unspecified) | 32900 nM (inactive) | 
2 | > 1580 nM (inactive) | > 2510 nM (inactive) | > 3160 nM (inactive) | > 3980 nM (inactive) | > 3980 nM (inactive) | > 2510 nM (inactive) | > 3980 nM (inactive) | 1000 nM (active) | > 3980 nM (inactive) | > 3980 nM (inactive) | > 3160 nM (inactive) | > 3980 nM (inactive) | > 2510 nM (inactive) | > 2510 nM (inactive) | > 3980 nM (inactive) | > 7940 nM (inactive) | 316 nM (active) | > 2510 nM (inactive) | > 3980 nM (inactive) | COc1cccc(CNC(=O)c2cnc(-c3ccncc3)nc2)c1 |  | 
3 | 1.26 nM (active) | 1000 nM (active) | > 2000 nM (inactive) | 251 nM (active) | 100 nM (active) | 2.51 nM (active) | 1260 nM (active) | 15.8 nM (active) | 631 nM (active) | 501 nM (active) | 31.6 nM (active) | 63.1 nM (active) | > 2000 nM (inactive) | 39.8 nM (active) | > 3980 nM (inactive) | 158 nM (active) | 31.6 nM (active) | 251 nM (active) | 251 nM (active) | OC1CCC(Nc2nc(Cl)cc(-c3c[nH]c4ncccc34)n2)CC1 (stereo unspecified) |  | pKi [2]: 8.9; pKi [3]: 6; pKi [5]: 6.6; pKi [6]: 7; pKi [7]: 8.6; pKi [8]: 5.9; pKi [9]: 7.8; pKi [10]: 6.2; pKi [11]: 6.3; pKi [12]: 7.5; pKi [13]: 7.2; pKi [15]: 7.4; pKi [17]: 6.8; pKi [18]: 7.5; pKi [19]: 6.6; pKi [20]: 6.6
4 |  |  |  |  |  |  |  |  |  |  |  |  |  |  |  |  |  |  |  | O=C(COC(=O)c1ccc([N+](=O)[O-])s1)Nc1ccc(F)cc1 | > 104000 nM (inactive) | 
